# Data: patent publication US9719981B2, “RAC1 inhibitors for the treatment of alport glomerular disease” (Father Flanagan's Boys' Home, priority 2012, dated 2017)
# Assays:
# cultured mesangial cells = experiment: Endothelin-1 induced drebrin-positive actin microspikes in mesangial cells; assay type: cell-based, mouse
# Description: (§1) FIG. 30. Treatment of mesangial cells with endothelin-1 activates CDC42 and induces the formation of drebrin-positive actin microspikes; microspikes and CDC42 activation are inhibited by pre-treatment of cells with Sitaxentan. A) Cultured mesangial cells were serum starved, pretreated for 1 hour with or without Sitaxentan, treated for 30 minutes with endothelin-1, fixed with acetone, and dual stained with anti-drebrin antibodies (red) and phalloidin (green). Drebrin-positive microspikes (filopodia, denoted by arrowheads) are highly abundant on the endothelin-treated cells, but not detected when the cells are pre-treated with Sitaxentan. B) Cells were treated as in A, then lysates prepared and assayed by ELISA for GTP-CDC42.
# (§2) To address this, serum-starved cultured mesangial cells were pre-treated (or not) with the ETAR antagonist, Sitaxentan, and then stimulated the cells with endothelin-1. Cells were then dual labeled with anti-drebrin antibodies (drebrin stabilizes actin filaments in filopodia) and phalloidin. […] Lysates from cultured mesangial cells were further analysed using these same conditions for the activation of CDC42 using a commercial ELISA assay for GTP-CDC42.
# CDC42 = experiment: ELISA for GTP-CDC42 in endothelin-1 treated mesangial cells; assay type: cell-based, mouse
# Description: as §1, §2
# [1] = tested on: 129 Sv autosomal Alport mice; experiment: Sitaxentan treatment of 129 Sv autosomal Alport mice; assay type: in vivo, mouse
# Description: FIG. 32. […] At least 6 glomeruli from at least 3 independent animals per group were analyzed by quantifying red fluorescence in circumferential capillary loops (defined by laminin α5 immunostaining in green) using NIH image J software. Mesangial angles were excluded. A) An example of how the capillaries were partitioned for these measures. B) Immunogold labeling for integrin α8 in a filopodial cross-section on the sub-endothelial aspect of an Alport capillary loop (arrow). Note the absence of immunogold labeling in the podocyte pedicles (asterisks) and the fenestrated endothelium (arrowheads). C) Quantitative results for red fluorescence in the capillary loops.
# FIG. 33. […] Urine was collected at the indicated time points and analyzed for albumin using an ELISA kit. Albumin measures were normalized to urinary creatinine. Note that measurable albumin in the Sitaxentan-treated mice was not detected until 6 weeks of age indicating a delayed onset of glomerular disease.
# 129 Sv autosomal Alport mice were given Sitaxentan once daily by oral gavage from 2 weeks to 7 weeks of age. Kidney cryosections were immunostained using antibodies for laminin α2 and integrin α8 to determine the effect of drug treatment on laminin 211 deposition in the GBM or laminin α5 and integrin α8 to determine the degree of mesangial filopodial invasion in the glomerular capillaries. In addition, transmission electron microscopy was used to determine whether the ETAR antagonist ameliorates GBM damage.
# [2] = tested on: 129 autosomal Alport mice; experiment: Endothelin receptor blockade (Bosentan or Sitaxentan) in 129 autosomal Alport mice; assay type: in vivo, mouse; settings: for Mesangial filopodial invasion and deposition of laminin 211 in the glomerular capillaries: Alport mouse model; for Ameliorating Alport renal disease (comparison of the two antagonists) / GBM structural abnormalities / Glomerular expression of MMPs and pro-inflammatory cytokines / Mesangial process invasion of the glomerular capillaries / Onset and progression of proteinuria: treated from 2 to 7 weeks of age
# Description: With this example, 129 autosomal Alport mice were given either Bosentan (an endothelin A and B receptor antagonist) or Sitaxentan (an endothelin A receptor antagonist) from 2 to 7 weeks of age. Mice were analyzed longitudinally for proteinuria and BUN, glomerular RNA for gene expression of MMPs and pro-inflammatory cytokines by real time RT-PCR, and tissue was analyzed histochemistry and immunohistochemistry for pathologic changes.
# To determine whether ETR antagonism prevents mesangial filopodia formation in vivo, we treated 129 Sv Alport mice with either Bosentan (ETAR and ETBR antagonist) or Sitaxentan (an ETAR antagonist) from 2 weeks to 7 weeks of age.
# [3] = tested on: primary cultured mesangial cells; experiment: Boyden chamber (Transwell) cell migration assay, wild type mesangial cells; assay type: cell-based, mouse; settings: relative to 10% FCS, p<0.05
# Description: MES Migration (insert). Transwell cell migration assays were performed as described by Daniel et al. (Daniel et al., 2012, Lab Invest; 92(6): 812-26) with some modifications. 8 micron, 24-well plate control inserts (BD Bioscience, Bedford, Mass.) were coated overnight at 4° C. with 100 μl of 0.1% gelatin/PBS then washed 1× with PBS. MES cultures were incubated in 1% FCS overnight, then 0.05% BSA-containing media for at least 8 hours, washed 1× with PBS and carefully tryspinized to ensure a single cell suspension and limited “clumping” of cells. After serum-neutralization and subsequent centrifugation, ˜100,000 cells were resuspended in 1.5 mls of 0.05% BSA media containing activators/inhibitors. The wells of a 24-well plate were filled with 0.75 mls of 10% FCS-containing media plus activators/inhibitors (excluding 0.05% BSA control well). 0.5 ml of cell-suspension was loaded into the gelatin-coated insert and the insert placed in a well. Wells were visually inspected for bubbles beneath insert and equal distribution of cell-suspension. Cells were allowed to migrate overnight (˜18 hrs). Using a moistened cotton swab, non-migrated cells were liberated from the apical-side of the insert by gentle but firm rubbing. A second swab repeated the removal and was followed by a single wash with PBS. Inserts were fixed, stained and washed (2×) in companion 24 well plate(s) containing 0.5 mls MEOH, 0.5 mls 1% Toluidine Blue in 1% Borax and 0.5 mls distilled H2O, respectively. Inserts were air dried and counted at 100× magnification. Five fields were counted on each insert including one center and four periphery areas. Data was expressed as relative to 10% FCS control well (set equal to one).
# [4] = tested on: 129 Sv autosomal Alport mice; experiment: Bosentan treatment of 129 Sv autosomal Alport mice; assay type: in vivo, mouse
# Description: It is known that matrix metalloproteinases (MMPs), transforming growth factor beta 1 (TGF-β1), and monocyte chemoattractant protein-1 (MCP-1) contribute to the progression of Alport glomerular pathology (Cosgrove et al., 2000, Am J Pathol; 157(5):1649-59; Rao et al., 2006, Am J Pathol; 169(1):32-46; Eisberg et al., 2006, PLoS Med; 3(4):e100). 129 Sv autosomal Alport mice and wild type littermates were treated with 100 mg/kg Bosentan or with […] vehicle by oral gavage from 2 to 7 weeks of age. One kidney was prepared for immunohistochemistry, and the other used for glomerular RNA isolation. […] MMP-9 expression was not affected; however this MMP has been shown not to contribute to progression of Alport glomerular disease (Andrews et al., 2000, Am J Pathol; 157(1):303-11). Kidney cryosections from these same mice were immunostained using antibodies against fibronectin, to assess interstitial fibrosis, and CD11b, to assess the degree of monocytic interstitial infiltration.
# [5] = tested on: integrin α1-null mesangial cells; experiment: Boyden chamber (Transwell) cell migration assay, integrin α1-null mesangial cells; assay type: cell-based, mouse; settings: relative to 10% FCS
# Description: MES Migration (insert). Transwell cell migration assays were performed as described by Daniel et al. (Daniel et al., 2012, Lab Invest; 92(6): 812-26) with some modifications. 8 micron, 24-well plate control inserts (BD Bioscience, Bedford, Mass.) were coated overnight at 4° C. with 100 μl of 0.1% gelatin/PBS then washed 1× with PBS. MES cultures were incubated in 1% FCS overnight, then 0.05% BSA-containing media for at least 8 hours, washed 1× with PBS and carefully tryspinized to ensure a single cell suspension and limited “clumping” of cells. After serum-neutralization and subsequent centrifugation, ˜100,000 cells were resuspended in 1.5 mls of 0.05% BSA media containing activators/inhibitors. The wells of a 24-well plate were filled with 0.75 mls of 10% FCS-containing media plus activators/inhibitors (excluding 0.05% BSA control well). 0.5 ml of cell-suspension was loaded into the gelatin-coated insert and the insert placed in a well. Wells were visually inspected for bubbles beneath insert and equal distribution of cell-suspension. Cells were allowed to migrate overnight (˜18 hrs). […] Inserts were air dried and counted at 100× magnification. Five fields were counted on each insert including one center and four periphery areas. Data was expressed as relative to 10% FCS control well (set equal to one).
# [6] = tested on: cultured wild type mesangial cells; experiment: LPS-induced actin cytoskeletal rearrangement (phalloidin staining); assay type: cell-based, mouse; settings: 10 ng/ml LPS; 10 μM Rac-1 inhibitor or 1 μM CDC42 inhibitor; blinded
# Description: Activation of mesangial cell cultures by treatment with LPS. Sub-confluent mesangial cells were tryspinized; plated at low density on Rat tail type 1 collagen (BD Biosciences) coated cytology slides (VWR) and incubated overnight in 1% FCS-containing media. One hour after the addition of serum-free media, 1 μM CDC42 Inhibitor (KSC-23-233) and 10 μM Rac-1 Inhibitor, NSC-23766 (Tocris) were added to individual slides and allowed to incubate for an additional hour. 10 ng/ml Lipopolysaccharides (Sigma-Aldrich) was added to cells, incubated 1 hour, fixed in ice cold acetone for 5 minutes and allowed to air dry ˜2 hours. Cells were stained with a 1:100 dilution of antibodies specific for CDC42 (10155-1-AP, PROTEINTECH™), and phalloidin (Molecular Probes) imaged. Untreated, LPS alone and LPS plus inhibitors treatments were repeated on two different derivations of primary mesangial cells with qualitatively consistent results.
# [7] = tested on: Alport mice on the 129 Sv background; experiment: Treatment of Alport mice with Rac1 inhibitor; assay type: in vivo, mouse; settings: injected once daily from 2 weeks to 6 weeks of age; relative to saline
# Description: FIG. 9. Treatment of Alport mice with Rac1 inhibitors partially ameliorates mesangial cell process invasion of the glomerular capillary tufts. […] Kidney cryosections were analyzed by dual immunofluorescence immunostaining using antibodies against either laminin α2 (B and E) or integrin α8 (A and D). […] represent a merging of results from staining with laminin α2 and integrin α8. The degree of mesangial process invasion of the glomerular capillary tufts was ameliorated in the Rac1 inhibitor-treated mice relative to mice injected with saline.
# To examine the effect of Rac1 inhibitors on Alport glomerular disease progression, either wild type or Alport mice were treated with inhibitors by IP injection from 2 weeks to 6 weeks of age. Glomeruli were examined for mesangial process invasion of the capillary tufts by dual immunofluorescence microscopy using antibodies specific for either integrin α8 or the GBM marker laminin α5. […] Combined, the data in FIG. 7, FIG. 8, and FIG. 9 confirm that mesangial process invasion of the glomerular capillaries is a Rac1-dependent process, and that Rac1 activation is attenuated by integrin α1 deletion both in vitro and in vivo.
# Immunofluorescence microscopy. Fresh frozen kidneys were sectioned at 8 μm and acetone fixed. […]
# [8] = pretreated 1 hour, endothelin-1 for 30 minutes
# [9] = serum-starved cells, 30 minutes
# [10] = 100 mg/kg oral gavage from 2 to 7 weeks of age, vs vehicle
molecule,measurement,setting,value
"Cc1cc2c(cc1CC(=O)c1sccc1S(=O)(=O)Nc1onc(C)c1Cl)OCO2 [Sitaxentan, N-(4-chloro-3-methyl-1,2-oxazol-5-yl)-2-[2-(6-methyl-2H-1,3-benzodioxol-5-yl)acetyl]thiophene-3-sulfonamide]","Endothelin-1 induced formation of drebrin-positive microspikes, with antagonist pretreatment",cultured mesangial cells; [8],blocks
same,"Endothelin-1 induced CDC42 activation (GTP-CDC42), with antagonist pretreatment",CDC42; [8],prevents
same,GBM architecture (transmission electron microscopy),[1]; 7 weeks of age,normalization
same,Interstitial fibrosis (fibronectin immunostaining),[1]; 7 weeks of age,profoundly ameliorated
same,Monocyte recruitment to the renal interstitium (CD11b immunostaining),[1]; 7 weeks of age,profoundly ameliorated
same,Capillary integrin α8 immunostaining (quantified red fluorescence),[1]; at least 6 glomeruli from at least three mice per group,normalization
same,Age at which proteinuria was first detected,[1]; normally detected by 3 weeks of age,6 weeks of age
same,Mesangial filopodial invasion of glomerular capillaries,"[1]; once daily oral gavage from 2 weeks to 7 weeks of age, vs vehicle",near complete absence
same,Proteinuria after the onset,[1]; urinary albumin normalized to creatinine,significantly reduced
same,"Glomerular expression of MMP-10, -12 and MCP-1 compared with the reduction seen with Bosentan",[1]; with the exception of TGF-β1,quantitatively similar results
same,Mesangial filopodial invasion and deposition of laminin 211 in the glomerular capillaries,[2],highly effective
same,Ameliorating Alport renal disease (comparison of the two antagonists),[2],equally effective
same,GBM structural abnormalities,[2],ameliorating
same,Glomerular expression of MMPs and pro-inflammatory cytokines,[2],significantly reducing
same,Mesangial process invasion of the glomerular capillaries,[2],markedly reduced
same,Onset and progression of proteinuria,[2],delaying the onset and progression
CCn1c(-c2nonc2N)nc2c(C#CC(C)(C)O)ncc(OC[C@H]3CCCNC3)c21 [GSK 690693],Migration of wild type mesangial cells,[3],not affected
endothelin-1: stimulus activating endothelin receptors on mesangial cells,Formation of drebrin-positive filopodial microspikes on stimulation,cultured mesangial cells; [9],induces
same,CDC42 activation (GTP-CDC42) on stimulation,CDC42; [9],significantly activates
"COc1ccccc1Oc1c(NS(=O)(=O)c2ccc(C(C)(C)C)cc2)nc(-c2ncccn2)nc1OCCO [Bosentan, 4-tert-butyl-N-[6-(2-hydroxy-ethoxy)-5-(2-methoxy-phenoxy)[2,{acuteover (2)}]-bipyrimidin-4-yl]-benzenesulfonamide monohydrate]",Glomerular MMP-9 expression,[4]; [10],not affected
same,Glomerular mRNA expression of IL-6,[4]; [10],significant reduction
same,Glomerular mRNA expression of MMP-10,[4]; [10],significant reduction
same,Glomerular mRNA expression of MMP-12,[4]; [10],significant reduction
same,Glomerular mRNA expression of TGF-β1,[4]; [10],significant reduction
same,Interstitial fibrosis (fibronectin immunostaining),"[4]; 7 weeks of age, vs vehicle",near complete blockade
same,Mesangial process invasion of glomerular capillaries (integrin α8 / laminin α5 immunostaining),"[4]; 7 weeks of age, vs vehicle","largely localized to the mesangial matrix, with occasional interposition into the capillary loops observed"
same,Monocytic interstitial infiltration (CD11b immunostaining),"[4]; 7 weeks of age, vs vehicle",near complete blockade
same,Glomerular expression of MCP-1,[4]; Bosentan-treated Alport mice vs vehicle,significantly reduced
same,Mesangial filopodial invasion and deposition of laminin 211 in the glomerular capillaries,[2],highly effective
same,Ameliorating Alport renal disease (comparison of the two antagonists),[2],equally effective
same,GBM structural abnormalities,[2],ameliorating
same,Glomerular expression of MMPs and pro-inflammatory cytokines,[2],significantly reducing
same,Mesangial process invasion of the glomerular capillaries,[2],markedly reduced
same,Onset and progression of proteinuria,[2],delaying the onset and progression
CCN(CC)CCCC(C)Nc1nc(C)cc(Nc2ccc3nc(C)cc(N)c3c2)n1 (centres unmarked) [NSC 23766],Migration of wild type mesangial cells,[3],significantly reduced
same,Integrin α1-null mesangial cell migration,[5],unaffected
same,LPS-induced morphological change (filopodia / actin spikes) in presence of inhibitor,[6],could not be distinguished in blinded experiments form untreated wild type mesangial cells
same,Degree of mesangial process invasion of the glomerular capillary tufts,[7],ameliorated
ML141,Migration of wild type mesangial cells,[3],significantly reduced
same,Integrin α1-null mesangial cell migration,[5],unaffected
same,LPS-induced morphological change (filopodia / actin spikes) in presence of inhibitor,[6],could not be distinguished in blinded experiments form untreated wild type mesangial cells
